Experimental data reported in patent publication US20260345517A1, “DOSAGE REGIMENS FOR TREATING STARGARDT DISEASE” (Alkeus Pharmaceuticals, Inc., priority 2024, published 2026).

How the values were obtained:
[1] = Open-label multiple dose pharmacokinetic study in healthy volunteers (percentage of deuterated vitamin A in plasma, LC/MS); format: in vivo, human; conditions: fasting
Description: Study Design: This was an open-label, non-randomized, multiple dose study in healthy volunteers aged 21 to 70 years of age (inclusion criteria). Subjects who met all entrance criteria at screening were invited to receive the study medication. There were six treatment arms: 2 mg/day, 3.5 mg/day, 5 mg/day, 7 mg/day, 10 mg/day and 14 mg/day gildeuretinol acetate. For the four lower dose groups, the dose regimen was one capsule per day, orally, to be taken at home, preferably in the evening unless a different time was preferred by the subject. For the two highest doses, the dose regimen was two capsules per day, one in the morning and one in the evening, although subjects with a preference to take both capsules at once were offered to do so. After taking the 1st dose at the study site, subjects were invited to return two and four weeks after starting the treatment.
The clinical staff made periodic calls to monitor adverse events and ensure subject compliance. In addition, a text message was sent daily to remind subjects to take their medication. Subjects were instructed to avoid foods that contain large amounts of vitamin A (such as liver-based products), including supplements containing vitamin A, and to report their vitamin A intake by answering a daily text message diary. Fruits and vegetables were permitted without restriction.
Deuterated retinol (gildeuretinol) (“D3”) and non-deuterated retinol (“Do”) and other vitamin A metabolites were measured to calculate the percentage of deuterated vitamin A in plasma. For all treatment groups, plasma samples were collected at baseline, 14±1 days (“2 weeks”) and 28±1 days (“4 weeks”) after initiation of treatment. Blood samples were usually collected following at least 10 hours of fasting (including last gildeuretinol acetate intake), preferably in the morning. For the 7 mg/day and the 14 mg/day groups only, after the first and last dose, blood samples were collected every 4 hours for 24 hours. A liquid chromatography/mass spectrometry assay was used to measure the metabolite levels.
Table 2 provides % D3 Retinol (gildeuretinol, i.e. the percentage of deuterated retinol (gildeuretinol) over total retinol (as deuterated+non-deuterated) in plasma measured 12-24 hours following gildeuretinol acetate intake.
Pharmacokinetic Results (integrated levels over 24 hours post dosing): total vitamin A in plasma, both deuterated (gildeuretinol) and non-deuterated (retinol), was measured every 4 hours following administration of 7 mg or 14 mg at the first dose, and following administration of the 28th dose (4 weeks of daily treatment). The area under the curve (AUC) was calculated and the % deuterated % D3 of total vitamin A (as retinol and gildeuretinol) was computed as an average over 24 hours.

[2] = TEASE-3: plasma gildeuretinol (replacement of plasma vitamin A); format: in vivo, human; conditions: 14 mg daily, after the first two months, all three participants
Description: The tolerability and effects of gildeuretinol acetate in Stargardt Disease (Clinical trial group 3 also known as TEASE-3) study was an open-label, multicenter, case control study designed to evaluate the efficacy and safety of gildeuretinol acetate on the progression of Stargardt disease in asymptomatic individuals. The trial was conducted at multiple sites in the United States.
To assess the safety and efficacy of gildeuretinol acetate in preventing vision loss in asymptomatic individuals, gildeuretinol acetate 14 mg capsules was administered to individuals showing early signs of retinal damage while maintaining approximately 20/20 vision and no subjective loss of vision. […] Based on the above family history and clinical observations, the individuals were likely to develop retinal lesions, loss of photoreceptors, drops in retinal sensitivity, loss of visual acuity, indicating the onset of symptoms, i.e. a progression to the symptomatic phase, including vision loss within two years, mirroring the progression observed in their older siblings.
Patients received gildeuretinol acetate 14 mg capsules, to be taken orally once daily. Trial visits occurred every 6 months approximately following screening and treatment start visits.

% gildeuretinol over retinol + gildeuretinol in plasma ([1]; 2 mg/day, after 2 weeks of treatment): 27%
% gildeuretinol over retinol + gildeuretinol in plasma ([1]; 2 mg/day, after 4 weeks of treatment): 31%
% gildeuretinol over retinol + gildeuretinol in plasma ([1]; 3.5 mg/day, after 2 weeks of treatment): 39%
% gildeuretinol over retinol + gildeuretinol in plasma ([1]; 3.5 mg/day, after 4 weeks of treatment): 46%
% gildeuretinol over retinol + gildeuretinol in plasma ([1]; 5 mg/day, after 2 weeks of treatment): 53%
% gildeuretinol over retinol + gildeuretinol in plasma ([1]; 5 mg/day, after 4 weeks of treatment): 51%
% gildeuretinol over retinol + gildeuretinol in plasma ([1]; 7 mg/day, 24 hours post 1st dose): 27%
% gildeuretinol over retinol + gildeuretinol in plasma ([1]; 7 mg/day, after 2 weeks of treatment): 55%
% gildeuretinol over retinol + gildeuretinol in plasma ([1]; 7 mg/day, after 4 weeks of treatment): 63%
% gildeuretinol over retinol + gildeuretinol in plasma ([1]; 10 mg/day, after 2 weeks of treatment): 66%
% gildeuretinol over retinol + gildeuretinol in plasma ([1]; 10 mg/day, after 4 weeks of treatment): 72%
% gildeuretinol over retinol + gildeuretinol in plasma ([1]; 14 mg/day, 24 hours post 1st dose): 41%
% gildeuretinol over retinol + gildeuretinol in plasma ([1]; 14 mg/day, after 2 weeks of treatment): 64%
% gildeuretinol over retinol + gildeuretinol in plasma ([1]; 14 mg/day, after 4 weeks of treatment): 79%
replacement of plasma vitamin A (retinol + gildeuretinol) with gildeuretinol [2]: 80%
SMILES: CC1=C(/C=C/C(C)=C/C=C/C(C)=C/CO)C(C)(C)CCC1 [gildeuretinol, C20D3-retinol]
